From patent publication US20090304654A1, “METHODS FOR ISOLATING ADIPOSE-DERIVED STEM CELLS AND THERAPEUTIC USE THEREOF” (REGENTS OF THE UNIVERSITY OF CALIFORNIA, priority 2008, published 2009)

Tested on: RADSC-1 cells
Experiment: Endothelial-inducing factors: LDL-uptake and endothelial markers of ADSC in subtraction/addition media and with FGFR inhibitor
Type: cell-based, rat
Conditions: for LDL-uptake ability on omission of the factor from EGM2: one week in subtraction EGM2; for LDL-uptake ability in EBM2 supplemented with the factor: one week in addition media
Experimental: RADSC-1 cells were grown in fully or partially supplemented EGM2 and then assayed for LDL-uptake. Each partially supplemented EGM2 is indicated by the omitted factor; for example, “−FGF” denotes EGM2 without FGF2. Experiments were repeated 3 times.
RADSC-1 cells were grown in EGM2, EBM2, or EBM2 supplemented with the indicated factor, and then assayed for LDL-uptake. Experiments were repeated 3 times.
RADSC-1 cells were grown in EGM2 or EBM2 supplemented with FGF2 and vitamin C in the presence or absence of FGFR inhibitor PD173074. The cells were then assayed for LDL-uptake. Red color indicates the presence of LDL, which was in a conjugated form with the red fluorescence dye DiI. RADSC-1 cells were also grown in VEGF/vitamin C-supplemented EBM2 for the purpose of excluding the involvement of VEGF signaling, as PD173074 is known to have a weak inhibitory effect on VEGF receptor. Experiments were repeated 3 times.
EGM2 medium is supplied by the manufacturer in the form of a basal medium (EBM2) and individual vials of supplemental factors. […] Specifically, we prepared “subtraction” EGM2 media by omitting one supplemental factor at a time.
The above experiments identified FGF2 as the only growth factor required for the induction of ADSC's LDL-uptake ability. We then tested whether FGF2 was able to induce the expression of additional endothelial characteristics. RADSC-1 cells were grown in DMEM, EGM2, or EBM2 supplemented with FGF2 and vitamin C. They were then stained for endothelial markers CD31, vWF, and eNOS, and tested for tube formation.
In the absence of PD173074 (with the addition of solvent only), cells grown in either the completely supplemented EGM2 or the FGF2/vitamin C-supplemented EBM2 acquired the LDL-uptake ability (FIG. 23).

heparin
LDL-uptake ability on omission of the factor from EGM2: essentially no effect

FGF2: growth factor supplement of EGM2
LDL-uptake ability in EBM2 supplemented with the factor: still effective, albeit at a reduced level
LDL-uptake ability on omission of the factor from EGM2: greatly diminished LDL-uptake ability

VEGF
LDL-uptake ability on omission of the factor from EGM2: essentially no effect

CCN(CC)CCCCNc1ncc2cc(-c3cc(OC)cc(OC)c3)c(NC(=O)NC(C)(C)C)nc2n1 [PD173074]
acquisition of LDL-uptake ability in the presence of inhibitor (cells in EGM2 or FGF2/vitamin C-supplemented EBM2): unable to do so

EGF: epidermal growth factor, supplement of EGM2 (NSDSECPLSHDGYCLHDGVCMYIEALDKYACNCVVGYIGERCQYRDLKWWELR; UniProt P01133 971-1023, looked up)
LDL-uptake ability on omission of the factor from EGM2: essentially no effect

C[C@]12CCC(=O)C=C1CC[C@@H]1[C@@H]2[C@@H](O)C[C@@]2(C)[C@H]1CC[C@]2(O)C(=O)CO [hydrocortisone]
LDL-uptake ability on omission of the factor from EGM2: essentially no effect

O=C1O[C@H]([C@@H](O)CO)C(O)=C1O [vitamin C]
LDL-uptake ability in EBM2 supplemented with the factor: still somewhat effective, but at a much reduced level
LDL-uptake ability on omission of the factor from EGM2: greatly diminished LDL-uptake ability
